# Measured values as given in PubChem BioAssay (NCI).
#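 Each compound was tested at five concentrations against cells in 96-well plates for 48 hours. Abbreviation: GI50, concentration required for 50% inhibition of growth. TGI denotes the concentration required for complete inhibition of growth.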
# Experiments:
# Test in all cases: NCI anticancer screen, dose series, 48 h
# SNB-75 CNS = tested on: SNB-75 CNS
# SF-268 CNS = tested on: SF-268 CNS
# CAKI-1 renal = tested on: CAKI-1 renal
# SK-MEL-2 melanoma = tested on: SK-MEL-2 melanoma
# SK-MEL-28 melanoma = tested on: SK-MEL-28 melanoma
# NCI-H23 lung = tested on: NCI-H23 lung
# SF-539 CNS = tested on: SF-539 CNS
# EKVX NSCLC = tested on: EKVX NSCLC
# A498 renal = tested on: A498 renal
# OVCAR-4 ovarian = tested on: OVCAR-4 ovarian
# ACHN renal = tested on: ACHN renal
# HCC-2998 colon = tested on: HCC-2998 colon
# HCT-15 colon = tested on: HCT-15 colon
# SNB-19 CNS = tested on: SNB-19 CNS
# NCI-H522 lung = tested on: NCI-H522 lung
# OVCAR-8 ovarian = tested on: OVCAR-8 ovarian
# KM20L2 colon = tested on: KM20L2 colon
# COLO 205 colon = tested on: COLO 205 colon
# SK-OV-3 ovarian = tested on: SK-OV-3 ovarian
# UACC-62 melanoma = tested on: UACC-62 melanoma
# U251 CNS = tested on: U251 CNS
# XF 498 CNS = tested on: XF 498 CNS
# NCI-H460 lung = tested on: NCI-H460 lung
# KM12 colon = tested on: KM12 colon
# CCRF-CEM leukemia = tested on: CCRF-CEM leukemia
# RPMI-8226 leukemia = tested on: RPMI-8226 leukemia
# M14 melanoma = tested on: M14 melanoma
# SW-620 colon = tested on: SW-620 colon
# IGROV1 ovarian = tested on: IGROV1 ovarian
# A549 NSCLC = tested on: A549 NSCLC
# OVCAR-3 ovarian = tested on: OVCAR-3 ovarian
# UACC-257 melanoma = tested on: UACC-257 melanoma
# MOLT-4 leukemia = tested on: MOLT-4 leukemia
# OVCAR-5 ovarian = tested on: OVCAR-5 ovarian
# SN12C renal = tested on: SN12C renal
# HOP-62 NSCLC = tested on: HOP-62 NSCLC
# TK-10 renal = tested on: TK-10 renal
# SF-295 CNS = tested on: SF-295 CNS
# MALME-3M melanoma = tested on: MALME-3M melanoma
# 786-0 renal = tested on: 786-0 renal
# HCT-116 colon = tested on: HCT-116 colon
# SK-MEL-5 melanoma = tested on: SK-MEL-5 melanoma
# HT29 colon = tested on: HT29 colon
# UO-31 renal = tested on: UO-31 renal
# K-562 leukemia = tested on: K-562 leukemia
# HOP-18 NSCLC = tested on: HOP-18 NSCLC
# M19-MEL melanoma = tested on: M19-MEL melanoma
# DMS 114 small cell lung = tested on: DMS 114 small cell lung
# LOX IMVI melanoma = tested on: LOX IMVI melanoma
# DMS 273 small cell lung = tested on: DMS 273 small cell lung
# DLD-1 colon = tested on: DLD-1 colon
# RXF 393 renal = tested on: RXF 393 renal
# HOP-92 NSCLC = tested on: HOP-92 NSCLC
# LXFL 529 NSCLC = tested on: LXFL 529 NSCLC
# HL-60(TB) leukemia = tested on: HL-60(TB) leukemia
# SR leukemia = tested on: SR leukemia
# NCI-H226 lung = tested on: NCI-H226 lung
# SNB-78 CNS = tested on: SNB-78 CNS
smiles,measurement,setting,value
Nc1ccccc1Nc1ccccc1C(=O)[O-].Nc1ccccc1Nc1ccccc1C(=O)[O-].[Cu+2],TGI,SNB-75 CNS,> 100 µM
same,TGI,SF-268 CNS,> 100 µM
same,TGI,CAKI-1 renal,> 100 µM
same,TGI,SK-MEL-2 melanoma,> 100 µM
same,TGI,SK-MEL-28 melanoma,> 100 µM
same,TGI,NCI-H23 lung,> 100 µM
same,TGI,SF-539 CNS,> 100 µM
same,TGI,EKVX NSCLC,> 100 µM
same,TGI,A498 renal,> 100 µM
same,GI50,OVCAR-4 ovarian,37.7 µM
same,TGI,OVCAR-4 ovarian,> 100 µM
same,TGI,ACHN renal,> 100 µM
same,TGI,HCC-2998 colon,> 100 µM
same,TGI,HCT-15 colon,> 100 µM
same,TGI,SNB-19 CNS,> 100 µM
same,TGI,NCI-H522 lung,> 100 µM
same,TGI,OVCAR-8 ovarian,> 100 µM
same,TGI,KM20L2 colon,> 100 µM
same,TGI,COLO 205 colon,> 100 µM
same,TGI,SK-OV-3 ovarian,> 100 µM
same,TGI,UACC-62 melanoma,44.3 µM
same,TGI,U251 CNS,> 100 µM
same,TGI,XF 498 CNS,> 100 µM
same,TGI,NCI-H460 lung,> 100 µM
same,TGI,KM12 colon,> 100 µM
same,TGI,CCRF-CEM leukemia,> 100 µM
same,TGI,RPMI-8226 leukemia,> 100 µM
same,TGI,M14 melanoma,> 100 µM
same,TGI,SW-620 colon,> 100 µM
same,TGI,IGROV1 ovarian,> 100 µM
same,TGI,A549 NSCLC,> 100 µM
same,TGI,OVCAR-3 ovarian,> 100 µM
same,TGI,UACC-257 melanoma,> 100 µM
same,TGI,MOLT-4 leukemia,> 100 µM
same,TGI,OVCAR-5 ovarian,> 100 µM
same,TGI,SN12C renal,> 100 µM
same,TGI,HOP-62 NSCLC,> 100 µM
same,TGI,TK-10 renal,> 100 µM
same,TGI,SF-295 CNS,> 100 µM
same,TGI,MALME-3M melanoma,> 100 µM
same,TGI,786-0 renal,> 100 µM
same,TGI,HCT-116 colon,> 100 µM
same,TGI,SK-MEL-5 melanoma,> 100 µM
same,TGI,HT29 colon,> 100 µM
same,TGI,UO-31 renal,> 100 µM
same,TGI,K-562 leukemia,> 100 µM
C=CC1=CSNN1,TGI,HOP-18 NSCLC,> 100 µM
same,TGI,SNB-75 CNS,> 100 µM
same,TGI,SF-268 CNS,> 100 µM
same,TGI,CAKI-1 renal,> 100 µM
same,TGI,SK-MEL-2 melanoma,> 100 µM
same,TGI,SK-MEL-28 melanoma,> 100 µM
same,TGI,NCI-H23 lung,> 100 µM
same,TGI,SF-539 CNS,> 100 µM
same,TGI,EKVX NSCLC,> 100 µM
same,TGI,A498 renal,> 100 µM
same,TGI,OVCAR-4 ovarian,> 100 µM
same,TGI,ACHN renal,> 100 µM
same,TGI,HCC-2998 colon,> 100 µM
same,TGI,HCT-15 colon,> 100 µM
same,TGI,SNB-19 CNS,> 100 µM
same,TGI,NCI-H522 lung,> 100 µM
same,TGI,OVCAR-8 ovarian,> 100 µM
same,TGI,KM20L2 colon,> 100 µM
same,TGI,COLO 205 colon,> 100 µM
same,TGI,SK-OV-3 ovarian,> 100 µM
same,TGI,UACC-62 melanoma,> 100 µM
same,TGI,U251 CNS,> 100 µM
same,TGI,M19-MEL melanoma,> 100 µM
same,TGI,DMS 114 small cell lung,> 100 µM
same,TGI,NCI-H460 lung,> 100 µM
same,TGI,KM12 colon,> 100 µM
same,TGI,LOX IMVI melanoma,> 100 µM
same,TGI,CCRF-CEM leukemia,> 100 µM
same,TGI,DMS 273 small cell lung,> 100 µM
same,TGI,RPMI-8226 leukemia,> 100 µM
same,TGI,M14 melanoma,> 100 µM
same,TGI,SW-620 colon,> 100 µM
same,TGI,IGROV1 ovarian,> 100 µM
same,TGI,A549 NSCLC,> 100 µM
same,TGI,OVCAR-3 ovarian,> 100 µM
same,TGI,UACC-257 melanoma,> 100 µM
same,TGI,MOLT-4 leukemia,> 100 µM
same,TGI,DLD-1 colon,> 100 µM
same,TGI,OVCAR-5 ovarian,> 100 µM
same,TGI,RXF 393 renal,> 100 µM
same,TGI,SN12C renal,> 100 µM
same,TGI,HOP-62 NSCLC,> 100 µM
same,TGI,TK-10 renal,> 100 µM
same,TGI,HOP-92 NSCLC,> 100 µM
same,TGI,SF-295 CNS,> 100 µM
same,TGI,LXFL 529 NSCLC,> 100 µM
same,TGI,MALME-3M melanoma,> 100 µM
same,TGI,786-0 renal,> 100 µM
same,TGI,HCT-116 colon,> 100 µM
same,TGI,SK-MEL-5 melanoma,> 100 µM
same,TGI,HT29 colon,> 100 µM
same,TGI,HL-60(TB) leukemia,> 100 µM
same,TGI,UO-31 renal,> 100 µM
same,TGI,K-562 leukemia,> 100 µM
COc1ccc2nc(-c3ccc(OCc4ccccc4)cc3)ccc2c1,TGI,HOP-18 NSCLC,> 100 µM
same,TGI,SNB-75 CNS,> 100 µM
same,TGI,SF-268 CNS,> 100 µM
same,TGI,SK-MEL-28 melanoma,> 100 µM
same,TGI,NCI-H23 lung,> 100 µM
same,TGI,SR leukemia,> 100 µM
same,TGI,SF-539 CNS,> 100 µM
same,TGI,NCI-H226 lung,> 100 µM
same,TGI,EKVX NSCLC,> 100 µM
same,TGI,OVCAR-4 ovarian,> 100 µM
same,TGI,ACHN renal,> 100 µM
same,TGI,HCC-2998 colon,> 100 µM
same,TGI,SNB-19 CNS,> 100 µM
same,TGI,NCI-H522 lung,> 100 µM
same,TGI,OVCAR-8 ovarian,> 100 µM
same,TGI,KM20L2 colon,> 100 µM
same,TGI,COLO 205 colon,> 100 µM
same,TGI,SK-OV-3 ovarian,> 100 µM
same,TGI,UACC-62 melanoma,> 100 µM
same,TGI,XF 498 CNS,> 100 µM
same,TGI,M19-MEL melanoma,> 100 µM
same,TGI,DMS 114 small cell lung,> 100 µM
same,TGI,NCI-H460 lung,> 100 µM
same,TGI,KM12 colon,> 100 µM
same,TGI,LOX IMVI melanoma,> 100 µM
same,TGI,CCRF-CEM leukemia,> 100 µM
same,TGI,RPMI-8226 leukemia,> 100 µM
same,TGI,M14 melanoma,> 100 µM
same,TGI,SW-620 colon,> 100 µM
same,TGI,IGROV1 ovarian,> 100 µM
same,TGI,A549 NSCLC,> 100 µM
same,TGI,OVCAR-3 ovarian,> 100 µM
same,TGI,UACC-257 melanoma,> 100 µM
same,TGI,MOLT-4 leukemia,> 100 µM
same,TGI,SNB-78 CNS,> 100 µM
same,TGI,DLD-1 colon,> 100 µM
same,TGI,OVCAR-5 ovarian,> 100 µM
same,TGI,RXF 393 renal,> 100 µM
same,TGI,SN12C renal,> 100 µM
same,TGI,HOP-62 NSCLC,> 100 µM
same,TGI,TK-10 renal,> 100 µM
same,TGI,HOP-92 NSCLC,> 100 µM
same,TGI,SF-295 CNS,> 100 µM
same,TGI,LXFL 529 NSCLC,> 100 µM
same,TGI,MALME-3M melanoma,> 100 µM
same,TGI,786-0 renal,> 100 µM
same,TGI,HCT-116 colon,> 100 µM
same,TGI,SK-MEL-5 melanoma,> 100 µM
same,TGI,HT29 colon,> 100 µM
same,TGI,HL-60(TB) leukemia,> 100 µM
same,TGI,UO-31 renal,> 100 µM
same,TGI,K-562 leukemia,> 100 µM
O=C(C#Cc1c[nH]c(=O)[nH]c1=O)c1ccccc1Cl,TGI,HOP-18 NSCLC,34.4 µM
same,TGI,SNB-75 CNS,39.6 µM
same,TGI,SF-268 CNS,41.4 µM
same,TGI,CAKI-1 renal,31.3 µM
same,TGI,SK-MEL-2 melanoma,29.9 µM
same,TGI,SK-MEL-28 melanoma,32 µM
same,TGI,NCI-H23 lung,32.3 µM
same,TGI,SF-539 CNS,30 µM
same,TGI,NCI-H226 lung,75.7 µM
same,TGI,EKVX NSCLC,36.5 µM
same,TGI,A498 renal,36.3 µM
same,TGI,OVCAR-4 ovarian,31.1 µM
same,TGI,ACHN renal,33.1 µM
same,TGI,HCC-2998 colon,30.8 µM
same,TGI,HCT-15 colon,28.7 µM
same,TGI,SNB-19 CNS,> 100 µM
same,TGI,OVCAR-8 ovarian,29.3 µM
same,TGI,COLO 205 colon,29.8 µM
same,TGI,SK-OV-3 ovarian,> 100 µM
same,TGI,UACC-62 melanoma,38.6 µM
same,TGI,U251 CNS,35.1 µM
same,TGI,DMS 114 small cell lung,46.9 µM
same,TGI,NCI-H460 lung,67.7 µM
same,TGI,KM12 colon,88.4 µM
same,TGI,LOX IMVI melanoma,26.7 µM
same,TGI,CCRF-CEM leukemia,59.8 µM
same,TGI,DMS 273 small cell lung,38.8 µM
same,TGI,RPMI-8226 leukemia,71.7 µM
same,TGI,M14 melanoma,28.8 µM
same,TGI,SW-620 colon,27.2 µM
same,TGI,IGROV1 ovarian,35 µM
same,TGI,A549 NSCLC,> 100 µM
same,TGI,OVCAR-3 ovarian,27.3 µM
same,TGI,UACC-257 melanoma,27.9 µM
same,TGI,MOLT-4 leukemia,44.3 µM
same,TGI,SNB-78 CNS,60.7 µM
same,TGI,DLD-1 colon,29.3 µM
same,TGI,OVCAR-5 ovarian,34 µM
same,TGI,RXF 393 renal,14.7 µM
same,TGI,SN12C renal,27.5 µM
same,TGI,HOP-62 NSCLC,> 100 µM
same,TGI,TK-10 renal,36.1 µM
same,TGI,HOP-92 NSCLC,35.4 µM
same,TGI,SF-295 CNS,> 100 µM
same,TGI,MALME-3M melanoma,32.1 µM
same,TGI,786-0 renal,32 µM
same,TGI,HCT-116 colon,30.9 µM
same,TGI,SK-MEL-5 melanoma,28.8 µM
same,TGI,HT29 colon,96.9 µM
same,TGI,HL-60(TB) leukemia,48.1 µM
same,TGI,UO-31 renal,38.5 µM
same,TGI,K-562 leukemia,> 100 µM
